≈ marks a conversion by molar mass, not a printed value. Like-named read-outs stand apart in the source and are kept apart here.
Assays:
[1] = Solubility Determination Assay (PBS pH 1.6 and pH 7.4); format: physicochemical; details: PBS buffer, aqueous buffer, kinetic from dmso stock, 2 hours shaking
Procedure: Example 31: Solubility Determination Assay
The stock solutions of test compounds and control compound progesterone were prepared in DMSO at the concentrations of 10 mM. 15 μL of stock solution (10 mM) of each sample was placed in order into their proper 96-well rack. 485 μL of PBS pH 1.6 and pH 7.4 were added into each vial of the cap-less Solubility Sample plate. The assay was performed in singlet. One stir stick was added to each vial and then the vial was sealed using a molded PTFE/Silicone plug. The solubility sample plates were then transferred to the Eppendorf Thermomixer Comfort plate shaker and shaken at 25° C. at 1100 rpm for 2 hours. After completion of the 2 hours, plugs were removed and the stir sticks were removed using a big magnet. The samples from the Solubility Sample plate were transferred into the filter plate. Using the Vacuum Manifold, all the samples were filtered. An aliquot of 5 μL was taken from the filtrate followed by addition of 495 μL of a mixture of H2O and acetonitrile containing internal standard (1:1). A certain proportion of ultrapure water was used to dilute the diluent according to the peak shape. The dilution factor was changed according to the solubility values and the LC-MS signal response.
From the 10 mM DMSO STD plate, 6 μL was transferred into the remaining empty plate, and then 194 μL of DMSO were added to that plate to have a STD concentration of 300 μM. From the 300 μM DMSO STD plate, 5 μL were transferred into the remaining empty plate, and then 495 μL of a mixture of H2O and acetonitrile containing internal standard (1:1) were added to that plate to have a final STD concentration of 3 μM. A certain proportion of ultrapure water was used to dilute the diluent according to the peak shape. The concentrations of the standard samples were changed according to the LC-MS signal response.
The plate was placed into the well plate autosampler. The samples were evaluated by LC-MS/MS analysis.
All calculations were carried out using Microsoft Excel.
The filtrate was analyzed and quantified against a standard of known concentration using LC coupled with mass spectral peak identification and quantitation. Solubility values of the test compound and control compound were calculated as follows: […]
Any value of the compounds that was not within the specified limits was rejected and the experiment was repeated.
“+++” indicates a solubility value equal to or greater than […] “++” indicates a solubility value between 0.1 and 1 μM and “+” indicates a solubility value less than 0.1 μM.

[2] = Hepatocyte Stability Assay, human hepatocytes; format: in vitro ADME; details: cryopreserved human hepatocytes, read-out: Human hepatocyte clearance
Procedure: Example 32: Hepatocyte Stability Assay
Preparation of working solutions: 10 mM stock solutions of test compound and positive control were prepared in DMSO. In separate conical tubes, the 10 mM solution of test compound and the positive control were diluted to 100 μM by combining 198 μL of 50% acetonitrile/50% water and 2 μL of 10 mM stock.
Preparation of Hepatocytes: Incubation medium (William's E Medium supplemented with GlutaMAX) and hepatocyte thawing medium were placed in a 37° C. water bath and allowed warming for at least 15 minutes prior to use. A vial of cryopreserved hepatocytes was transferred from storage, ensuring that vials remained at cryogenic temperatures until thawing process ensued. Cells were thawed by placing the vial in a 37° C. water bath and gently shaking the vials for 2 minutes. After thawing was completed, vial was sprayed with 70% ethanol and transferred to a biosafety cabinet. Wide-bore pipette tip were used to transfer hepatocytes into 50 mL conical tube containing thawing medium. The 50 mL conical tube were placed into a centrifuge and spun at 100 g for 10 minutes. Upon completion of spin, thawing medium was aspirated and resuspended hepatocytes in enough incubation medium to yield ˜1.5×10^6 cells/mL. Using an AO/PI Staining, cells were counted and the viable cell density was determined. Cells with poor viability (<75% viability) were determined to be not acceptable for use. Cells were diluted with incubation medium to a working cell density of 0.5×10^6 viable cells/mL.
Procedure for Stability Determination: 198 μL of hepatocytes were pipetted into each wells of a 96-well non-coated plate. The plate was placed in the incubator to allow the hepatocytes to warm for 10 minutes. 2 μL of the 100 μM test compound or positive control solutions were pipetted into respective wells of the 96-well non-coated plate to start the reaction. The plate was returned to the incubator for the designed time points. Well contents was transferred in 25 μL aliquots at time points of 0, 15, 30, 60, 90 and 120 minutes. The aliquots were then mixed with 6 volumes (150 μL) of acetonitrile containing internal standard, IS (100 nM alprazolam, 200 nM caffeine and 100 nM tolbutamide) to terminate the reaction. The mixture was vortex for 5 minutes. Samples were centrifuged for 45 minutes at 3,220 g. An aliquot of 100 μL of the supernatant was diluted by 100 μL ultra-pure water, and the mixture was used for LC/MS/MS analysis. All incubations were performed in duplicate.
Data Analysis: All calculations were carried out using Microsoft Excel. Peak areas were determined from extracted ion chromatograms. In vitro half-life (t1/2) of parent compound was determined by regression analysis of the percent parent disappearance vs. time curve.
The in vitro half-life (in vitro t1/2) was determined from the slope value:
Conversion of the in vitro t1/2 (in min) into the in vitro intrinsic clearance (in vitro CLint, in μL/min/1×10^6 cells) was done using the following equation (mean of duplicate determinations): • in vitro CLint=kV/N • V=incubation volume (0.2 mL); • N=number of hepatocytes per well (0.1×10^6 cells).
“+++” indicates a CLint value less than 20 mL/min/Kg, “++” indicates a CLint between 20 and 50 mL/min/Kg, and “+” indicates an CLint above 50 mL/min/Kg.

[3] = PBS pH 1.6, 25° C., read-out: Aq. Solubility at pH = 1.6
[4] = PBS pH 7.4, 25° C., read-out: Aq. Solubility at pH = 7.4

## Cc1ccccc1-c1ccc2nc(NC(=O)c3ccccn3)sc2n1 [Product 8, N-(5-(o-tolyl)thiazolo[5,4-b]pyridin-2-yl)picolinamide]
[1]; [3]
  solubility at 2 h: 0.1 to 1 µM (≈ 0.0346 to 0.346 µg/mL)
[1]; [4]
  solubility at 2 h: < 0.1 µM
[2]
  CLint scaled at 1 µM: 20 to 50 mL/min/kg

## COc1ccccc1-c1ccc2nc(NC(=O)c3ccccn3)sc2n1 [Product 12, N-(5-(2-methoxyphenyl)thiazolo[5,4-b]pyridin-2-yl)picolinamide]
[1]; [3]
  solubility at 2 h: 0.1 to 1 µM (≈ 0.0362 to 0.362 µg/mL)
[1]; [4]
  solubility at 2 h: 0.1 to 1 µM (≈ 0.0362 to 0.362 µg/mL)
[2]
  CLint scaled at 1 µM: 20 to 50 mL/min/kg

## Cc1ccccc1-c1ccc2nc(NC(=O)c3ccnn3C)sc2n1 [Product 15, 1-Methyl-N-(5-(o-tolyl)thiazolo[5,4-b]pyridin-2-yl)-1H-pyrazole-5-carboxamide]
[1]; [3]
  solubility at 2 h: 0.1 to 1 µM (≈ 0.0349 to 0.349 µg/mL)
[1]; [4]
  solubility at 2 h: ≥ 1 µM
[2]
  CLint scaled at 1 µM: < 20 mL/min/kg

## CN(C)c1ccccc1-c1ccc2nc(NC(=O)c3ccnn3C)sc2n1 [Product 18, N-(5-(2-(dimethylamino)phenyl)thiazolo[5,4-b]pyridin-2-yl)-1-methyl-1H-pyrazole-5-carboxamide]
[1]; [3]
  solubility at 2 h: ≥ 1 µM
[1]; [4]
  solubility at 2 h: ≥ 1 µM
[2]
  CLint scaled at 1 µM: 20 to 50 mL/min/kg

## COc1ccccc1-c1ccc2nc(NC(=O)c3ccnn3C)sc2n1 [Product 25, N-(5-(2-methoxyphenyl)thiazolo[5,4-b]pyridin-2-yl)-1-methyl-1H-pyrazole-5-carboxamide]
[1]; [3]
  solubility at 2 h: ≥ 1 µM
[1]; [4]
  solubility at 2 h: ≥ 1 µM
[2]
  CLint scaled at 1 µM: < 20 mL/min/kg

## Cc1ccccc1-c1ccc2nc(NC(=O)N3CCOCC3)sc2n1 [Product 39, N-(5-(o-tolyl)thiazolo[5,4-b]pyridin-2-yl)morpholine-4-carboxamide]
[1]; [3]
  solubility at 2 h: ≥ 1 µM
[1]; [4]
  solubility at 2 h: ≥ 1 µM
[2]
  CLint scaled at 1 µM: < 20 mL/min/kg

## Cn1ncnc1C(=O)Nc1cnc2cc(-c3cc(F)ccc3C(F)F)[nH]c2c1 [Product 47]
[1]; [3]
  solubility at 2 h: ≥ 1 µM
[1]; [4]
  solubility at 2 h: 0.1 to 1 µM (≈ 0.0386 to 0.386 µg/mL)
[2]
  CLint scaled at 1 µM: < 20 mL/min/kg
